Test results published in patent US20260078103A1, “ISOQUINOLONES AS PI3K INHIBITORS” (OnKure, Inc., priority 2022, published 2026).
Like-named read-outs stand apart in the source and are kept apart here.

Tests used:
[1] = tested on: T47D cells expressing mutant PI3Ka (H1047R); test: In vitro cell proliferation, T47D cells (CellTiter-Glo); assay type: cell-based; details: inhibition of proliferation, read-out: Avg T-47D EC50
Outline: (§1)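 T47D (PI3Kα H1047R; RPMI, 10% FBS, insulin 0.2 units/mL) or SKBR3 (WT PI3Kα; McCoys 5a, 10% FBS) cells seeded at 1,500 cells/well on 10-point compound dilutions, grown 72 h at 37 °C. CellTiter-Glo luminescence; inhibition normalised to 0.1% DMSO and 10 uM alpelisib, EC50 from four-parameter fit.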

[2] = tested on: SKBR3 cells express WT PI3Ka; test: In vitro cell proliferation, SKBR3 cells (CellTiter-Glo); assay type: cell-based; details: inhibition of proliferation
Outline: as §1

[3] = tested on: phosphorylation of AKT (pAKT) in T47D cells expressing mutant PI3Ka (H1047R); test: In vitro cell pAKT (Ser473) HTRF, T47D cells; assay type: cell-based
Outline: (§2)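 pAKT (Ser473) was quantified by HTRF in lysates from cells exposed 6 h at 37 °C to 10-point compound series, with T47D in insulin-supplemented RPMI/10% FBS and SKBR3 in McCoy's 5a/10% FBS. Controls: 0.1% DMSO (high) and 10 uM alpelisib (low). IC50 from sigmoidal curve fitting.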

[4] = tested on: phosphorylation of AKT (pAKT) in SKBR3 cells express WT PI3Ka; test: In vitro cell pAKT (Ser473) HTRF, SKBR3 cells; assay type: cell-based
Outline: as §2

[5] = Mouse pharmacokinetics, single IV or PO dose, plasma LC/MS/MS; assay type: in vivo; details: CD1 mice; for PK-Mouse: PO F: PO 10 mg/kg vs IV 1 mg/kg; for AUC(0-t) / clearance: mouse, plasma; for clearance: read-out: PK-Mouse: IV Cl
Procedure: CD1 mice were dosed with a single IV or PO dose, followed by serial sampling of plasma at 0.0833 (IV only), 0.25, 0.5, 1, 2, 4, 8, 24 hours post dose. Desired serial concentrations of working solutions were achieved by diluting stock solution of analyte with 50% acetonitrile in water solution.10 μL of working solutions […] were added to 10 μL of the blank Female CD1 Mouse plasma to achieve calibration standards of 0.5˜1000 ng/ml (0.5, 1, 2, 5, 10, 50, 100, 500, 1000 ng/ml) in a total volume of 20 μL. Five quality control samples at 1 ng/ml, 2 ng/ml, 5 ng/ml, 50 ng/ml and 800 ng/ml for plasma were prepared independently of those used for the calibration curves. These QC samples were prepared on the day of analysis in the same way as calibration standards. 20 μL standards, 20 μL QC samples and 20 μL unknown samples (10 μL plasma with 10 μL blank solution) were added to 200 μL of acetonitrile containing IS mixture for precipitating protein respectively. Then the samples were vortexed for 30 s. after centrifugation at 4° Celsius, 4000 rpm for 15 min. The supernatant was diluted with water at a ratio of 1:2 (V/V, 1:2), Then 5 μL of diluted supernatant was injected into the LC/MS/MS system for quantitative analysis.

[6] = Homo sapiens, SK-BR-3, cellular pAKT, 6 hours
[7] = IV 1 mg/kg, 20% PEG400/20% PG/60% of 20% HPβCD solution in water, read-out: PK-Mouse: IV AUC last
[8] = IV 1 mg/kg, 20% PEG400/20% PG/60% of 20% HPβCD solution in water
[9] = PO 10 mg/kg, 30% SBEβCD in water, read-out: PK-Mouse PO AUC last
[10] = cellular pAKT, T47D cells, mutant PI3Ka (H1047R), 6 hours, read-out: Avg T-47D IC50
[11] = Homo sapiens, T47D, 6 h, cellular pAKT, T47D cells, mutant PI3Ka (H1047R), 6 hours, read-out: Avg T-47D IC50
[12] = Homo sapiens, SK-BR-3, 6 h, cellular pAKT

| Compound | EC50 ([1]; 72 hours) | EC50 ([2]; 72 hours) | IC50 [3, 10] | IC50 ([4]; cellular pAKT, 6 hours) | EC50 ([1]; Homo sapiens, T47D, 72 h) | EC50 ([2]; Homo sapiens, SK-BR-3, 72 h) | IC50 [3, 11] | IC50 [4, 12] | other results |
| --- | --- | --- | --- | --- | --- | --- | --- | --- | --- |
| Cc1cc(C(C)Nc2ccccc2C(=O)O)c2cc(N3CCC(C)(C)CC3)n(C)c(=O)c2c1 (single isomer, unassigned) [Example 1, 2-((1-(3-(4,4-dimethylpiperidin-1-yl)-2,7-dimethyl-1-oxo-1,2-dihydroisoquinolin-5-yl)ethyl)amino)benzoic acid] | 1 to 500 nM | 2000 to 15000 nM | – | – | – | – | – | – | IC50 ([3]; read-out: Avg T-47D IC50, cellular pAKT, T47D cells, mutant PI3Ka (H1047R), 6 hours): 1 to 500 nM; IC50 [4, 6]: > 15000 nM; PK-Mouse: PO F [5]: 50%; AUC(0-t) [5, 7]: 3060 ng·h/mL; clearance [5, 8]: 5.7 mL/min/kg; AUC(0-t) [5, 9]: 15200 ng·h/mL |
| Cc1cc(C(C)Nc2ccc(Cl)nc2C(=O)O)c2cc(C3=CCC(C)(C)CC3)n(C)c(=O)c2c1 (single isomer, unassigned) [Example 23, 6-chloro-3-((1-(3-(4,4-dimethylcyclohex-1-en-1-yl)-2,7-dimethyl-1-oxo-1,2-dihydroisoquinolin-5-yl)ethyl)amino)picolinic acid] | 1 to 500 nM | 2000 to 15000 nM | 500 to 2000 nM | > 15000 nM | – | – | – | – | PK-Mouse: PO F [5]: 106%; AUC(0-t) [5, 7]: 683 ng·h/mL; clearance [5, 8]: 24.6 mL/min/kg; AUC(0-t) [5, 9]: 7230 ng·h/mL |
| Cc1cc(C(C)Nc2ccccc2C(=O)O)c2cc(N3CCN(CC(F)(F)F)CC3)n(C)c(=O)c2c1 (single isomer, unassigned) [Example 8, 2-((1-(2,7-dimethyl-1-oxo-3-(4-(2,2,2-trifluoroethyl)piperazin-1-yl)-1,2-dihydroisoquinolin-5-yl)ethyl)amino)benzoic acid] | 1 to 500 nM | 2000 to 15000 nM | 1 to 500 nM | 2000 to 15000 nM | – | – | – | – | PK-Mouse: PO F [5]: 62%; AUC(0-t) [5, 7]: 1440 ng·h/mL; clearance [5, 8]: 11.7 mL/min/kg; AUC(0-t) [5, 9]: 8900 ng·h/mL |
| Cc1cc([C@@H](C)Nc2ccccc2C(=O)O)c2cc(N3CCn4cc(C)nc4C3)n(C)c(=O)c2c1 [Example 434] | – | – | – | – | 1 to 500 nM | > 15000 nM | 1 to 500 nM | > 15000 nM | – |
| Cc1cc(C(C)Nc2ccccc2C(=O)O)c2cc(N3CCN4C(=O)CCC4C3)n(C)c(=O)c2c1 (single isomer, unassigned) [Example 134] | – | – | – | – | 2000 to 15000 nM | > 15000 nM | > 15000 nM | > 15000 nM | – |
| Cc1cc([C@@H](C)Nc2ccccc2C(=O)O)c2cc(N3CCN(c4cncnc4)CC3)n(C)c(=O)c2c1 [Example 235] | – | – | – | – | 1 to 500 nM | 2000 to 15000 nM | 500 to 2000 nM | 2000 to 15000 nM | – |
| Cc1cc(C(C)Nc2ccccc2C(=O)O)c2cc(N3C[C@H]4CCCC[C@@H]4C3)n(C)c(=O)c2c1 (single isomer, unassigned) [Example 115] | 1 to 500 nM | > 15000 nM | > 15000 nM | > 15000 nM | – | – | – | – | – |
| Cc1cc([C@@H](C)Nc2ccccc2C(=O)O)c2cc(SCc3ccccc3)n(C)c(=O)c2c1 [Example 34, (R)-2-((1-(3-(benzylthio)-2,7-dimethyl-1-oxo-1,2-dihydroisoquinolin-5-yl)ethyl)amino)benzoic acid] | – | – | – | – | 1 to 500 nM | > 15000 nM | – | – | IC50 ([3]; Homo sapiens, T47D, 6 h, read-out: Avg T-47D IC50, cellular pAKT, T47D cells, mutant PI3Ka (H1047R), 6 hours): 1 to 500 nM; IC50 [4, 6]: > 15000 nM |
| Cc1cc([C@@H](C)Nc2cnc(Cl)nc2C(=O)O)c2cc(N3CCN(CC(F)(F)F)CC3)n(C)c(=O)c2c1 [Example 377] | 2000 to 15000 nM | > 15000 nM | 2000 to 15000 nM | > 15000 nM | – | – | – | – | – |
| Cc1cc(C(C)Nc2ccc(Cl)nc2C(=O)O)c2cc(N3CCC(C)(C)CC3)n(C)c(=O)c2c1 (single isomer, unassigned) [Example 3, 6-chloro-3-((1-(3-(4,4-dimethylpiperidin-1-yl)-2,7-dimethyl-1-oxo-1,2-dihydroisoquinolin-5-yl)ethyl)amino)picolinic acid] | 1 to 500 nM | – | 500 to 2000 nM | 2000 to 15000 nM | – | 2000 to 15000 nM | – | – | – |
| CCOc1ncc(-c2cc3c([C@@H](C)Nc4cccc(F)c4C(=O)O)cc(C)cc3c(=O)n2C)s1 [Example 347] | – | – | – | – | 1 to 500 nM | > 15000 nM | 1 to 500 nM | > 15000 nM | – |
| COCC1CN(c2cc3c([C@@H](C)Nc4ccccc4C(=O)O)cc(C)cc3c(=O)n2C)C1 [Example 193] | – | – | – | – | 500 to 2000 nM | > 15000 nM | 1 to 500 nM | > 15000 nM | – |
| Cc1cc(C(C)Nc2ccccc2C(=O)O)c2cc(N3CCS(=O)(=O)CC3)n(C)c(=O)c2c1 (single isomer, unassigned) [Example 151] | > 15000 nM | > 15000 nM | > 15000 nM | > 15000 nM | – | – | – | – | – |
| Cc1cc([C@@H](C)Nc2ccccc2C(=O)O)c2cc(N3CCn4cc(C(F)(F)F)nc4C3)n(C)c(=O)c2c1 [Example 432] | – | – | – | – | 500 to 2000 nM | > 15000 nM | 1 to 500 nM | > 15000 nM | – |
| Cc1cc(C(C)Nc2ccccc2C(=O)O)c2cc(N3CC(Cl)C3)n(C)c(=O)c2c1 (single isomer, unassigned) [Example 79] | 1 to 500 nM | > 15000 nM | 1 to 500 nM | > 15000 nM | – | – | – | – | – |

Second part, led by results:

| EC50 ([1]; 72 hours) | EC50 ([2]; 72 hours) | IC50 [3, 10] | IC50 ([4]; cellular pAKT, 6 hours) | EC50 ([1]; Homo sapiens, T47D, 72 h) | EC50 ([2]; Homo sapiens, SK-BR-3, 72 h) | IC50 [3, 11] | IC50 [4, 12] | Compound | other results |
| --- | --- | --- | --- | --- | --- | --- | --- | --- | --- |
| 1 to 500 nM | 2000 to 15000 nM | 1 to 500 nM | 2000 to 15000 nM | – | – | – | – | Cc1nc(C)c(-c2ncc(-c3cc4c(C(C)Nc5ccccc5C(=O)O)cc(F)cc4c(=O)n3C)cc2F)cc1F (stereo not shown) [Example 471] | – |
| – | – | – | – | 1 to 500 nM | > 15000 nM | 1 to 500 nM | > 15000 nM | Cc1cc([C@@H](C)Nc2ccccc2C(=O)O)c2cc(-c3cnc(C(C)(C)F)nc3)n(C)c(=O)c2c1 [Example 283] | – |
| – | – | – | – | 1 to 500 nM | > 15000 nM | 1 to 500 nM | > 15000 nM | COc1ncc(-c2cc3c([C@@H](C)Nc4ccccc4C(=O)O)cc(F)cc3c(=O)n2C)s1 [Example 513] | – |
| – | – | – | – | 500 to 2000 nM | > 15000 nM | 500 to 2000 nM | > 15000 nM | C[C@@H](Nc1ccccc1C(=O)O)c1cc(F)cc2c(=O)n(C)c(-c3cnc(C(F)(F)F)s3)cc12 [Example 508] | – |
| – | – | – | – | 1 to 500 nM | > 15000 nM | 1 to 500 nM | > 15000 nM | Cc1cc([C@@H](C)Nc2cccc(F)c2C(=O)O)c2cc(-c3ccc(OC4CC4)nc3)n(C)c(=O)c2c1 [Example 351] | – |
| – | – | – | – | 500 to 2000 nM | > 15000 nM | 1 to 500 nM | > 15000 nM | Cc1cc([C@@H](C)Nc2ccccc2C(=O)O)c2cc(-c3cnc4c(c3)CCC4F)n(C)c(=O)c2c1 (stereo partly shown) [Example 248] | – |
| 1 to 500 nM | > 15000 nM | 1 to 500 nM | > 15000 nM | – | – | – | – | C[C@@H](Nc1ccccc1C(=O)O)c1cc(F)cc2c(=O)n(C)c(-c3ccc(OC4CC(F)(F)C4)nc3)cc12 [Example 546] | – |
| – | – | – | – | 1 to 500 nM | 2000 to 15000 nM | 1 to 500 nM | 2000 to 15000 nM | C[C@@H](Nc1ccccc1C(=O)O)c1cc(F)cc2c(=O)n(C)c(C34CC(c5ccc(F)cc5F)(C3)C4)cc12 [Example 578] | – |
| – | – | – | – | 500 to 2000 nM | > 15000 nM | 1 to 500 nM | > 15000 nM | Cc1cc(C(C)Nc2ccccc2C(=O)O)c2cc(-c3ccc(C)nc3)n(C)c(=O)c2c1 (stereo not shown) [Example 68] | – |
| 1 to 500 nM | > 15000 nM | 1 to 500 nM | > 15000 nM | – | – | – | – | C[C@@H](Nc1ccccc1C(=O)O)c1cc(F)cc2c(=O)n(C)c(-c3cnc(-c4cn(C)nc4F)c(F)c3)cc12 [Example 543] | – |
